Source: PMC8609999, “A Phase I trial of talazoparib in patients with advanced hematologic malignancies” (International Journal of Hematologic Oncology, 2021)
Where two headings read alike, the source gives them in different places. Marks after values point to notes of the source that are not given here.

Legend:
[1] = tested on: patients with advanced hematologic malignancies (cohort 1: AML/MDS; cohort 2: CLL/MCL); assay type: in vivo, human
Excerpt: AEs were coded in accordance with The Medical Dictionary for Regulatory Activities, version 16.1. Treatment-emergent AEs (TEAEs) were defined as AEs that were new, increased in frequency, or worsened in severity, after the first talazoparib dose. AEs counted as drug-related had been classified by investigators as possibly or probably related to talazoparib.
All analyses in this open-label, dose-finding study were descriptive in nature. Descriptive summaries of continuous variables, including the mean, standard deviation (SD), median, range, and, where appropriate, 95% CI and/or interquartile range, were determined using the Statistical Analysis Software (SAS), version 9.2. Descriptive summaries of categorical variables included the number of patients and percentages. Data were summarized with respect to the dose level at which the patients started treatment. Cohorts were defined as all patients who began treatment at a given dose level.

[2] = Plasma pharmacokinetics after multiple daily talazoparib dosing; assay type: in vivo, human
Method: (§1) Plasma and urine samples were assayed for talazoparib concentrations by Covance Laboratories Inc., using validated high performance liquid chromatography with tandem mass spectrometry detection methods. The lower limits of quantitation for […] and urine were 5.0 pg/ml and 25.0 pg/ml, respectively. Evaluated PK parameters included maximum concentration (Cmax), minimum concentration (Cmin), time to maximum plasma concentration (Tmax), area under the curve from time 0 to last measurable concentration (AUC0–t), area under the curve from time 0 to 24 h post-dose (AUC0–24), amount of drug excreted into the urine from time 0 to 24 h (Ae0–24), fraction of administered drug excreted in the urine from time 0 to 24 h (Fe0–24), and average renal clearance from time 0 to 24 h (ARC0–24); ARC0–24 was calculated as (Ae0–24/AUC0–24). PK parameters were calculated using Phoenix™ WinNonlin® 6.1.
(§2) Summary statistics for plasma and urine talazoparib concentrations and PK parameters were calculated by grouping subjects in cohorts 1 and 2 together to provide a larger sample size at each dose level.

[3] = Urine pharmacokinetics after multiple daily talazoparib dosing; assay type: in vivo, human
Method: as §1, §2

[4] = tested on: advanced hematologic malignancies (AML, MDS, CLL, MCL); experiment: Anti-leukemic activity (best overall response); assay type: in vivo, human
Method: Objective response, duration of objective response, and time to progression or treatment failure were recorded. Response was measured by the following response criteria: the European leukemiaNet for subjects with AML [30], the International Working Group for Prognosis in MDS for subjects with MDS [31, 32], the International Workshop on Chronic Lymphocytic leukemia (iwCLL) for subjects with CLL, and the Revised Response Criteria for MCL [34].

[5] = tested on: germline BRCA1/2-mutated HER2- advanced breast cancer; parameters: method as in PMID 30110579; conditions: 1 mg once daily; cited from earlier work
PARP = tested on: PARP; parameters: method as in PMID 28302823, PMID 24356813, PMID 32241924; conditions: in vitro; cited from earlier work
[6] = tested on: patients with germline BRCA1/2 mutations and solid tumors; conditions: NCT01286987; cited from earlier work
[7] = 1.35 mg/day, cycle 2 day 1, plasma, n = 3, median (range)
[8] = 1.35 mg/day, multiple daily dosing, urine, n = 2, geometric mean (geometric CV%)

Cn1ncnc1[C@H]1c2n[nH]c(=O)c3cc(F)cc(c23)N[C@@H]1c1ccc(F)cc1 [talazoparib]
Any study drug-related AEs of CTCAE Grade 5 (death) ([1]; Cohort 2, 0.10 mg/day (n = 3)): 0 (0.0) n (%)
Any AEs of CTCAE Grade of 5 (death) ([1]; Cohort 2, 0.90 mg/day (n = 5)): 0 (0.0) n (%)
Any study drug-related AEs of CTCAE Grade 5 (death) ([1]; Cohort 2, 0.90 mg/day (n = 5)): 0 (0.0) n (%)
Any AEs of CTCAE Grade of 5 (death) ([1]; Cohort 2, All (n = 8)): 1 (12.5) n (%)
Any study drug-related AEs of CTCAE Grade 5 (death) ([1]; Cohort 2, All (n = 8)): 0 (0.0) n (%)
Deaths ([1]; both cohorts, N = 33, during study or within 30 days after last dose): 39.4%
Patients with Grade 3/4 TEAEs ([1]; human, in vivo): 84.8%
Patients with TEAEs leading to dose interruption/reduction related to study drug ([1]; human, in vivo): 30.3%
Patients with a Grade 3/4 SAE ([1]; human, in vivo): 51.5%
Patients with a drug-related SAE ([1]; human, in vivo): 9.1%
Patients with at least one TEAE leading to dose interruption and/or reduction ([1]; human, in vivo): 45.5%
Patients with drug-related Grade 3/4 TEAEs ([1]; human, in vivo): 42.4%
Patients with drug-related TEAEs (possibly or probably related) ([1]; human, in vivo): 69.7%
Patients with serious AEs (SAEs) ([1]; human, in vivo): 75.8%
TEAE: Fatigue ([1]; n = 33, All grades (Grade 1–4 only)): 13 (39.4) n (%)
AR (accumulation ratio) [2, 7]: 3.80 (3.28, 4.22)
Tmax [2, 7]: 1.03 (1.00, 4.00) hr
AUC(0-t) ([2]; human, in vivo, 1.35 mg/day, cycle 2 day 1, plasma, n = 3, geometric mean (geometric CV%), read-out: AUC0–24): 226 ng·h/mL
AUC(0-t) ([2]; human, in vivo, 1.35 mg/day, cycle 2 day 1, plasma, n = 3, geometric mean (geometric CV%), read-out: AUC0–t): 225 ng·h/mL
Cmax ([2]; human, in vivo, 1.35 mg/day, cycle 2 day 1, plasma, n = 3, geometric mean (geometric CV%)): 19.7 ng/mL
Total exposure vs dose ([2]; in vivo): dose-proportional increases in total exposure
Ae0–24 [3, 8]: 0.531 (29.8) mg
Fe0–24 (fraction of administered drug excreted in urine) [3, 8]: 0.393 (29.8)
Major clearance pathway ([3]; human, in vivo): urinary elimination is the major clearance pathway
Stable disease (best overall response) ([4]; Cohort 1, AML (n = 21)): 9 (42.9) n (%)
Stable disease ≥16 weeks ([4]; Cohort 1, AML (n = 21)): 2 (9.5)^‡ n (%)
Stable disease (best overall response) ([4]; Cohort 1, All (n = 25)): 13 (52.0) n (%)
Stable disease ≥16 weeks ([4]; Cohort 1, All (n = 25)): 5 (20.0) n (%)
Stable disease (best overall response) ([4]; Cohort 1, MDS (n = 4)): 4 (100) n (%)
Stable disease ≥16 weeks ([4]; Cohort 1, MDS (n = 4)): 3 (75.0)^§ n (%)
Stable disease (best overall response) ([4]; Cohort 2, All (n = 8)): 5 (62.5) n (%)
Stable disease ≥16 weeks ([4]; Cohort 2, All (n = 8)): 1 (12.5) n (%)
Stable disease (best overall response) ([4]; Cohort 2, CLL (n = 4)): 3 (75.0) n (%)
Stable disease ≥16 weeks ([4]; Cohort 2, CLL (n = 4)): 0 n (%)
Stable disease (best overall response) ([4]; Cohort 2, MCL (n = 4)): 2 (50.0) n (%)
Stable disease ≥16 weeks ([4]; Cohort 2, MCL (n = 4)): 1 (25.0) n (%)
Patients with stable disease ([4]; both cohorts, N = 33): 54.5%
Stable disease of at least 16 weeks' duration ([4]; both cohorts, N = 33): six
Transfusion independence ([4]; one with MDS and one with AML): two
Progression-free survival compared with physician's choice of chemotherapy [5]: significantly longer progression-free survival
PARP-trapping activity compared with other PARP inhibitors (PARP): higher PARP-trapping activity
Maximum tolerated dose (MTD) [6]: 1 mg once daily
